This note sets out measurements from patent US9896456B2, “Pharmaceutical compound having inhibitory activity against cholesterol acyltransferase isozyme 2 (ACAT2)” (School Juridical Person Kitasato Institute, priority 2014, dated 2018).

Molecules are shown by their SMILES.

The test addresses T1, ACAT2 (Mus musculus, UniProt O88908).
T1 construct: The resulting sediment was collected as a murine hepatic microsome fraction; from tissue; host or cells: mouse liver (hepatic microsome fraction)
T1 sequence (O88908 1-525): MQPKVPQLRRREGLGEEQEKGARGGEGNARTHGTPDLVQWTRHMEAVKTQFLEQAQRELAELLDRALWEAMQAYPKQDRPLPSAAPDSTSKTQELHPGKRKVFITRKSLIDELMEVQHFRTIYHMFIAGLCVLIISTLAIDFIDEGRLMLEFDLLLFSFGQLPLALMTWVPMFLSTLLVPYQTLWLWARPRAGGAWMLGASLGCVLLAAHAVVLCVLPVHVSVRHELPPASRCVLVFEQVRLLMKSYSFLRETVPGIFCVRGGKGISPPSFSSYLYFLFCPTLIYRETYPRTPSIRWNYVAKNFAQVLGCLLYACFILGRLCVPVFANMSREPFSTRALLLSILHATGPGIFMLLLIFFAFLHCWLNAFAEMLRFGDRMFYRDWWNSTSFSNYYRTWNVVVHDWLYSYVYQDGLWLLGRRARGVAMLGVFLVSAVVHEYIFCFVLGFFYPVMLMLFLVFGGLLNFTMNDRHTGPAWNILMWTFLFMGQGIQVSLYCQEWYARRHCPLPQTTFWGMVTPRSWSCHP
Briefly: Test of inhibitory activity against ACAT2 (murine hepatic microsome, [1-14C]oleoyl coenzyme A). Conditions: for IC50: murine hepatic microsome fraction as enzyme source, 37° C., 5 minutes; for degree of inhibitory activity against ACAT2 (in words, compared with pyripyropene A): summary of Table 1. It is filed as biochemical. On the procedure: The compounds produced in accordance with the procedure described above were tested concerning the inhibitory activity against ACAT2 in the manner described below.
The ACAT2 enzyme protein was extracted from the membrane fraction derived from the murine hepatic microsome. Mouse livers were homogenized in buffer A (50 mM Tris-HCl buffer (pH 7.8), 1 mM ethylenediaminetetraacetic acid, and 1 mM phenylmethanesulfonyl fluoride) using a Potter-type homogenizer (Tokyo-RIKO). The homogenate was centrifuged at 12,000×g, and the supernatant was subjected to ultracentrifugation at […]. The resulting sediment was collected as a murine hepatic microsome fraction, and this fraction was adjusted so as to have a protein concentration of 5 mg/ml using buffer A. Thus, an enzyme source of the ACAT2 enzyme protein was obtained.
ACAT2 activity was measured in the manner described below. […] The reaction solution was incubated at 37° C. for 5 minutes. A reaction solution prepared with the addition of 10 μl of methanol in place of the sample was used as a control reaction solution.
After the incubation, the reaction was terminated with the addition of 1.2 ml of a chloroform/methanol (1:2) solution to the reaction solution. […] The resulting chloroform layer was evaporated to dryness and spotted on a thin layer chromatography (TLC) plate (silica gel plate, 0.5 mm thickness, Merck). Separation was carried out with the use of a solvent comprising hexane/diethyl ether/acetic acid (70:30:1, v/v). Subsequently, [^14C] cholesteryl oleate separated on the TLC plate was quantified using FLA 7000 (Fuji Film). […] In quantification of the [^14C] cholesteryl oleate, the radioactivity of a TLC plate onto which no substance had been spotted was designated as the background level.
The symbols used in the table are as defined below.

The compound `CC(=O)O[C@H]1C[C@@H](C(C)C)C[C@H]2C(O)c3c(cc(-c4ccccc4)oc3=O)O[C@]12C` (stereo in doubt) [PT003, (5aS,6S,8S,9aS,10R)-10-hydroxy-8-isopropyl-5a-methyl-1-oxo-3-phenyl-1,5a,6,7,8,9,9a,10-octahydropyrano[4,3-b]chromen-6-yl acetate] came in with an IC50 of 10 to 100 µM.

In turn, `CC(=O)O[C@H]1C[C@@H](C(C)C)C[C@H]2[C@@H](O)c3c(cc(-c4cccnc4)oc3=O)O[C@]12C` [PT001, (5aS,6S,8S,9aS,10R)-10-hydroxy-8-isopropyl-5a-methyl-1-oxo-3-(pyridin-3-yl)-1,5a,6,7,8,9,9a,10-octahydropyrano[4,3-b]chromen-6-yl acetate] came in with a half-inhibitory concentration (IC50) of 10 to 100 µM. Still for that read-out and setting: the figure for `CC(=O)O[C@H]1C[C@@H](C(C)C)C[C@H]2[C@H](O)c3c(cc(-c4cccnc4)oc3=O)O[C@]12C` [PT002, (5aS,6S,8S,9aS,10S)-10-hydroxy-8-isopropyl-5a-methyl-1-oxo-3-(pyridin-3-yl)-1,5a,6,7,8,9,9a,10-octahydropyrano[4,3-b]chromen-6-yl acetate] is 10 to 100 µM; for `CC(=O)O[C@H]1C[C@@H](C(C)C)C[C@H]2[C@H](O)c3c(cc(-c4ccccc4)oc3=O)O[C@]12C` [PT004, (5aS,6S,8S,9aS,10S)-0-hydroxy-8-isopropyl-5a-methyl-1-oxo-3-phenyl-1,5a,6,7,8,9,9a,10-octahydropyrano[4,3-b]chromen-6-yl acetate] it is 0.5 to 10 µM.

As for `CC(C)[C@@H]1C[C@H](OC(=O)c2ccc(C#N)cc2)[C@@]2(C)Oc3cc(-c4cccnc4)oc(=O)c3[C@H](O)[C@@H]2C1` [PT005, (5aS,6S,8S,9aS,10R)-10-hydroxy-8-isopropyl-5a-methyl-1-oxo-3-(pyridin-3-yl)-1,5a,6,7,8,9,9a,10-octahydropyrano[4,3-b]chromen-6-yl 4-cyanobenzoate], the IC50 was less than 0.5 µM and the “degree of inhibitory activity against ACAT2 (in words, compared with pyripyropene A)” value is “substantially equivalent to that of pyripyropene A”. Regarding `CC(C)[C@@H]1C[C@H](OC(=O)c2ccc(C#N)cc2)[C@@]2(C)Oc3cc(-c4cccnc4)oc(=O)c3[C@@H](O)[C@@H]2C1` [PT006, (5aS,6S,8S,9aS,10S)-10-hydroxy-8-isopropyl-5a-methyl-1-oxo-3-(pyridin-3-yl)-1,5a,6,7,8,9,9a,10-octahydropyrano[4,3-b]chromen-6-yl 4-cyanobenzoate], the IC50 was less than 0.5 µM and the “degree of inhibitory activity against ACAT2 (in words, compared with pyripyropene A)” value is “substantially equivalent to that of pyripyropene A”.

The compound `CC(C)[C@@H]1C[C@H](OC(=O)c2ccc(C#N)cc2)[C@@]2(C)Oc3cc(-c4ccccc4)oc(=O)c3[C@H](O)[C@@H]2C1` [PT007, (5aS,6S,8S,9aS,10R)-10-hydroxy-8-isopropyl-5a-methyl-1-oxo-3-phenyl-1,5a,6,7,8,9,9a,10-octahydropyrano[4,3-b]chromen-6-yl 4-cyanobenzoate] yielded a half-maximal inhibitory concentration (IC50) of 0.5 to 10 µM. Compound `CC(=O)O[C@H]1C[C@@H](C(C)C)C(C)(C)[C@H]2[C@@H](O)c3c(cc(-c4cccnc4)oc3=O)O[C@]12C` [PT008, (5aS,6S,8S,9aS,10R)-10-hydroxy-8-isopropyl-5a,9,9-trimethyl-1-oxo-3-(pyridin-3-yl)-1,5a,6,7,8,9,9a,10-octahydropyrano[4,3-b]chromen-6-yl acetate] gave an IC50 of 0.5 to 10 µM. On to `CC(C)[C@@H]1C[C@H](OC(=O)c2ccc(C#N)cc2)[C@@]2(C)Oc3cc(-c4cccnc4)oc(=O)c3[C@H](O)[C@@H]2C1(C)C` [PT009, (5aS,6S,8S,9aS,10R)-10-hydroxy-8-isopropyl-5a,9,9-trimethyl-1-oxo-3-(pyridin-3-yl)-1,5a,6,7,8,9,9a,10-octahydropyrano[4,3-b]chromen-6-yl 4-cyanobenzoate], for which the IC50 is less than 0.5 µM and the “degree of inhibitory activity against ACAT2 (in words, compared with pyripyropene A)” value was “substantially equivalent to that of pyripyropene A”. Take `CC(=O)OCC(COC(C)=O)[C@@H]1C[C@H](OC(C)=O)[C@@]2(C)Oc3cc(-c4cccnc4)oc(=O)c3[C@H](O)[C@@H]2C1(C)C` [PT010]: the IC50 is 10 to 100 µM. The compound `CC(=O)OCC(COC(C)=O)[C@@H]1C[C@H](OC(=O)c2ccc(C#N)cc2)[C@@]2(C)Oc3cc(-c4cccnc4)oc(=O)c3[C@H](O)[C@@H]2C1(C)C` [PT022, 2-((5aS,6S,8S,9aS,10R)-6-((4-cyanobenzoyl)oxy)-10-hydroxy-5a,9,9-trimethyl-1-oxo-3-(pyridin-3-yl)-1,5a,6,7,8,9,9a,10-octahydropyrano[4,3-b]chromen-8-yl)propane-1,3-diyl diacetate] came in with an IC50 of less than 0.5 µM.

As usually defined, the IC50 is the midpoint of a concentration-inhibition curve. A lower IC50 goes with greater potency in that assay.
